# Measured values reported in patent publication US12698507B2, “Methods and compositions for conferring and/or enhancing herbicide tolerance using protoporphyrinogen IX oxidase of various cyanobacteria or variant thereof” (FarmHannong Co., Ltd., priority 2019, dated 2026).
# pIC50: −log10 of the molar value. Read-outs that look alike come from different tables or passages of the source.
# Columns and labels:
# [1] = tested on: PPO-deficient BT3 E. coli (ΔPPO) transformed with CyPPO18 variant R89A+F360V (Thermosynechococcus vulcanus NIES-2134, SEQ ID NO: 3); assay type: cell-based; conditions: LB agar, 0 to 2,000 μM herbicide, 37° C., 16-20 hours
# Text: (§1) To enhance the PPO-inhibiting herbicide resistance of CyPPO19 and CyPPO18, PPO variant genes of the above example 2 were constructed. They were transformed to BT3 (ΔPPO) strain which is deficient of PPO activity and cultured in LB media with PPO-inhibiting herbicide, thereby examining whether growth of transformed BT3 was not inhibited.
# (§2) BT3 competent cells were transformed with the pET303-CyPPO19 (wild type), pET303-CyPPO18 (wild type) plasmids, and those with a mutation(s) constructed (refer to example 2) via heat shock method, and were cultured in LB agar media containing ampicillin.
# (§3) Single colony transformed with each CyPPO gene was cultured in 3 mL of LB broth (LPSS) containing ampicillin for more than 12 hours, and then was subcultured in LB broth until absorbance (OD600) reached 0.5 to 1. Then, it was diluted with LB broth to OD600=0.5. Again, the diluted solution was serially diluted 4 times by a factor of one tenth. […]
# (§4) Then, 10 μL of each diluted solution of E. coli was dropped on the plate and cultured at 37° C. under dark for 16-20 hours. PPO-inhibiting herbicide resistance was evaluated with the extent of E. coli growth containing each gene was observed.
# (§5) The extent of herbicide resistance was evaluated by the relative growth of variants to that of wild type, and listed in Tables 9 and 10 and FIGS. 3 to 32. […]
# [2] = molecular target: Thermosynechococcus elongatus PKUAC-SCTE542 protoporphyrinogen IX oxidase CyPPO19 (SEQ ID NO: 1) variant V305L (MBP fusion) (Thermosynechococcus sichuanensis, UniProt A0A7D6JSC1, V305L); experiment: PPO enzyme inhibition assay (IC50 for herbicides), CyPPO19 V305L fused to MBP; assay type: biochemical
# Thermosynechococcus elongatus PKUAC-SCTE542 protoporphyrinogen IX oxidase CyPPO19 (SEQ ID NO: 1) variant V305L (MBP fusion), sequence (A0A7D6JSC1 entry or part of it V305L): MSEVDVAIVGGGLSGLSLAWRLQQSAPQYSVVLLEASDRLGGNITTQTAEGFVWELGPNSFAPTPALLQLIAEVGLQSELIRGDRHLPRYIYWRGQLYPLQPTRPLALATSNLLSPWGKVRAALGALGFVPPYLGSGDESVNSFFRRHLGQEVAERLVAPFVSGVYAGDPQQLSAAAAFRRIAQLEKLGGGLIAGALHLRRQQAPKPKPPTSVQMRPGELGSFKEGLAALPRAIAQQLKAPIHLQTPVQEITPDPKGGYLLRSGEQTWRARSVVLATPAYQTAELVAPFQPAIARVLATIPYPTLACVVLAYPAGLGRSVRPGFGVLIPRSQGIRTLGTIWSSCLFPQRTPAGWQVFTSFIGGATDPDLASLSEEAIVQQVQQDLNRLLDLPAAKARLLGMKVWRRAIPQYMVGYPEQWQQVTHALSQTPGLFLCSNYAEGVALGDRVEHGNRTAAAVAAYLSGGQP
# [3] = molecular target: Thermosynechococcus vulcanus NIES-2134 protoporphyrinogen IX oxidase CyPPO18 (SEQ ID NO: 3) variant V165S (MBP fusion) (Thermosynechococcus vestitus, UniProt Q8DLV2, V165S); experiment: PPO enzyme inhibition assay (IC50 for herbicides), CyPPO18 V165S fused to MBP; assay type: biochemical; conditions: 50 μM protoporphyrinogen IX, pH 7.5, room temperature, 30 min
# Thermosynechococcus vulcanus NIES-2134 protoporphyrinogen IX oxidase CyPPO18 (SEQ ID NO: 3) variant V165S (MBP fusion), sequence (Q8DLV2 entry or part of it V165S): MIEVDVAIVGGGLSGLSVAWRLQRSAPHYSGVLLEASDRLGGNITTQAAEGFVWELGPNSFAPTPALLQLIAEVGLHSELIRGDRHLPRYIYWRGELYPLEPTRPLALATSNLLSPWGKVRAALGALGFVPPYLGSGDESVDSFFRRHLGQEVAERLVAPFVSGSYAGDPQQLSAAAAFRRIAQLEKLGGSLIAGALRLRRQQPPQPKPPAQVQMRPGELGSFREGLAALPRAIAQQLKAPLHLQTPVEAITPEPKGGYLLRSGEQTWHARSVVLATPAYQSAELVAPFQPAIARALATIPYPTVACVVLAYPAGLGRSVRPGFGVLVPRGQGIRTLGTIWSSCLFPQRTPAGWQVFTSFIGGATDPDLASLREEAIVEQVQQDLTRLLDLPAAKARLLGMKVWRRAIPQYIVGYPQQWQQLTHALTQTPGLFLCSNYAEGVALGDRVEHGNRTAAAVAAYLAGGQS
# [4] = tested on: PPO-deficient BT3 E. coli (ΔPPO) transformed with CyPPO19 variant R89A+F360L (Thermosynechococcus elongatus PKUAC-SCTE542, SEQ ID NO: 1); experiment: Herbicide tolerance test in E. coli, CyPPO19 R89A+F360L; assay type: cell-based; conditions: LB agar, 0 to 2,000 μM herbicide, 37° C., 16-20 hours
# Text: as §1, §2, §3, §4, §5
# [5] = tested on: PPO-deficient BT3 E. coli (ΔPPO) transformed with CyPPO19 variant R89A+F360M (Thermosynechococcus elongatus PKUAC-SCTE542, SEQ ID NO: 1); experiment: Herbicide tolerance test in E. coli, CyPPO19 R89A+F360M; assay type: cell-based; conditions: LB agar, 0 to 2,000 μM herbicide, 37° C., 16-20 hours
# Text: as §1, §2, §3, §4, §5
# [6] = tested on: PPO-deficient BT3 E. coli (ΔPPO) transformed with CyPPO18 variant A167L+F360I (Thermosynechococcus vulcanus NIES-2134, SEQ ID NO: 3); experiment: Herbicide tolerance test in E. coli, CyPPO18 A167L+F360I; assay type: cell-based; conditions: LB agar, 0 to 2,000 μM herbicide, 37° C., 16-20 hours
# Text: as §1, §2, §3, §4, §5
# [7] = molecular target: Thermosynechococcus elongatus PKUAC-SCTE542 protoporphyrinogen IX oxidase CyPPO19 (SEQ ID NO: 1) variant V165S (MBP fusion) (Thermosynechococcus sichuanensis, UniProt A0A7D6JSC1, V165S); experiment: biochemical; conditions: 50 μM protoporphyrinogen IX, pH 7.5, room temperature, 30 min, 10,000 means equivalent to or higher
# Thermosynechococcus elongatus PKUAC-SCTE542 protoporphyrinogen IX oxidase CyPPO19 (SEQ ID NO: 1) variant V165S (MBP fusion), sequence (A0A7D6JSC1 entry or part of it V165S): as the sequence (A0A7D6JSC1 entry or part of it V305L) above, with V165S, L305V counted along it
# [8] = molecular target: Thermosynechococcus vulcanus NIES-2134 protoporphyrinogen IX oxidase CyPPO18 (SEQ ID NO: 3) variant A167L (MBP fusion) (Thermosynechococcus vestitus, UniProt Q8DLV2, A167L); experiment: PPO enzyme inhibition assay (IC50 for herbicides), CyPPO18 A167L fused to MBP; assay type: biochemical; conditions: 50 μM protoporphyrinogen IX, pH 7.5, room temperature, 30 min
# Thermosynechococcus vulcanus NIES-2134 protoporphyrinogen IX oxidase CyPPO18 (SEQ ID NO: 3) variant A167L (MBP fusion), sequence (Q8DLV2 entry or part of it A167L): as the sequence (Q8DLV2 entry or part of it V165S) above, with S165V, A167L counted along it
# [9] = tested on: PPO-deficient BT3 E. coli (ΔPPO) transformed with CyPPO19 variant V165C+F360I (Thermosynechococcus elongatus PKUAC-SCTE542, SEQ ID NO: 1); experiment: Herbicide tolerance test in E. coli, CyPPO19 V165C+F360I; assay type: cell-based; conditions: LB agar, 0 to 2,000 μM herbicide, 37° C., 16-20 hours
# Text: as §1, §2, §3, §4, §5
# [10] = tested on: PPO-deficient BT3 E. coli (ΔPPO) transformed with CyPPO18 variant V305M+F360I (Thermosynechococcus vulcanus NIES-2134, SEQ ID NO: 3); experiment: Herbicide tolerance test in E. coli, CyPPO18 V305M+F360I; assay type: cell-based; parameters: key to the marks not given beside the values; conditions: LB agar, 0 to 2,000 μM herbicide, 37° C., 16-20 hours
# Text: as §1, §2, §3, §4, §5
# [11] = molecular target: Thermosynechococcus vulcanus NIES-2134 protoporphyrinogen IX oxidase CyPPO18 (SEQ ID NO: 3) variant V305M (MBP fusion) (Thermosynechococcus vestitus, UniProt Q8DLV2, V305M); experiment: PPO enzyme inhibition assay (IC50 for herbicides), CyPPO18 V305M fused to MBP; assay type: biochemical; conditions: 50 μM protoporphyrinogen IX, pH 7.5, room temperature, 30 min
# Thermosynechococcus vulcanus NIES-2134 protoporphyrinogen IX oxidase CyPPO18 (SEQ ID NO: 3) variant V305M (MBP fusion), sequence (Q8DLV2 entry or part of it V305M): as the sequence (Q8DLV2 entry or part of it V165S) above, with S165V, V305M counted along it
# [12] = tested on: PPO-deficient BT3 E. coli (ΔPPO) transformed with CyPPO19 variant V165C+F360V (Thermosynechococcus elongatus PKUAC-SCTE542, SEQ ID NO: 1); experiment: Herbicide tolerance test in E. coli, CyPPO19 V165C+F360V; assay type: cell-based; conditions: LB agar, 0 to 2,000 μM herbicide, 37° C., 16-20 hours
# Text: as §1, §2, §3, §4, §5
# [13] = molecular target: Thermosynechococcus vulcanus NIES-2134 protoporphyrinogen IX oxidase CyPPO18 (SEQ ID NO: 3) variant A167I (MBP fusion) (Thermosynechococcus vestitus, UniProt Q8DLV2, A167I); experiment: PPO enzyme inhibition assay (IC50 for herbicides), CyPPO18 A167I fused to MBP; assay type: biochemical; conditions: 50 μM protoporphyrinogen IX, pH 7.5, room temperature, 30 min
# Thermosynechococcus vulcanus NIES-2134 protoporphyrinogen IX oxidase CyPPO18 (SEQ ID NO: 3) variant A167I (MBP fusion), sequence (Q8DLV2 entry or part of it A167I): as the sequence (Q8DLV2 entry or part of it V165S) above, with S165V, A167I counted along it
# [14] = tested on: PPO-deficient BT3 E. coli (ΔPPO) transformed with CyPPO18 variant L327T+F360M (Thermosynechococcus vulcanus NIES-2134, SEQ ID NO: 3); experiment: Herbicide tolerance test in E. coli, CyPPO18 L327T+F360M; assay type: cell-based; parameters: key to the marks not given beside the values; conditions: LB agar, 0 to 2,000 μM herbicide, 37° C., 16-20 hours
# Text: as §1, §2, §3, §4, §5
# [15] = molecular target: Thermosynechococcus elongatus PKUAC-SCTE542 protoporphyrinogen IX oxidase CyPPO19 (SEQ ID NO: 1) variant R89A (MBP fusion) (Thermosynechococcus sichuanensis, UniProt A0A7D6JSC1, R89A); experiment: biochemical
# Thermosynechococcus elongatus PKUAC-SCTE542 protoporphyrinogen IX oxidase CyPPO19 (SEQ ID NO: 1) variant R89A (MBP fusion), sequence (A0A7D6JSC1 entry or part of it R89A): as the sequence (A0A7D6JSC1 entry or part of it V305L) above, with R89A, L305V counted along it
SMILES,tolerance level (relative growth of variant to wild type) [1],"pIC50 ([2]; CyPPO19 V305L, 50 μM protoporphyrinogen IX, pH 7.5, room temperature, 30 min)",pIC50 [3],tolerance level (relative growth of variant to wild type) [4],tolerance level (relative growth of variant to wild type) [5],tolerance level (relative growth of variant to wild type) [6],pIC50 [7],pIC50 [8],tolerance level (relative growth of variant to wild type) [9],tolerance level (relative growth of variant to wild type) [10],pIC50 [11],tolerance level (relative growth of variant to wild type) [12],pIC50 [13],tolerance level (relative growth of variant to wild type) [14],"pIC50 ([15]; CyPPO19 R89A, 50 μM protoporphyrinogen IX, pH 7.5, room temperature, 30 min)",pIC50 [2],pIC50 ([7]; read-out: IC50),pIC50 [15]
Cc1nn(-c2cc(CC(Cl)C(=O)O)c(Cl)cc2F)c(=O)n1C(F)F (stereo not drawn) [Carfentrazone],++,5.88,5.65,+,+,++,≤ 5.00,5.40,+,++,5.79,+,5.58,++,6.07,–,–,–
CCOc1cc(Oc2ccc(C(F)(F)F)cc2Cl)ccc1[N+](=O)[O-] [Oxyfluorfen],+,–,5.83,+,+,+,–,5.55,+,++,6.45,++,5.70,++,–,6.10,5.78,6.22
